In patent US6962808B2, “Method and apparatus for measurement of the effect of test compounds on signal transduction at the level of biological receptors” (The University of Louisville Research Foundation, priority 1998, dated 2005):

Target: T1, human estrogen receptor binding to ERE (Homo sapiens, UniProt P03372)
T1 construct: ubiquitin (fusion partner); made in house; host or cells: Saccharomyces cerevisiae strain AF103, YEpE10 plasmid, CUP1 promoter
Test: Evanescent fiber optic sensor, ERE fiber, binding of Cy5-tagged hER to the estrogen response element
Format: biochemical
Description: This solution comprised said calibration standard of component 6a. […] This receptor preparation was used as the calibration solution. Immediately after preparation it was pipetted in 135 μl aliquots into microcentrifuge tubes, snap frozen and stored at −80° C. They were not thawed again until they were used with the fiber sensor.

T1 sequence (P03372 whole entry, the tested form may be a part): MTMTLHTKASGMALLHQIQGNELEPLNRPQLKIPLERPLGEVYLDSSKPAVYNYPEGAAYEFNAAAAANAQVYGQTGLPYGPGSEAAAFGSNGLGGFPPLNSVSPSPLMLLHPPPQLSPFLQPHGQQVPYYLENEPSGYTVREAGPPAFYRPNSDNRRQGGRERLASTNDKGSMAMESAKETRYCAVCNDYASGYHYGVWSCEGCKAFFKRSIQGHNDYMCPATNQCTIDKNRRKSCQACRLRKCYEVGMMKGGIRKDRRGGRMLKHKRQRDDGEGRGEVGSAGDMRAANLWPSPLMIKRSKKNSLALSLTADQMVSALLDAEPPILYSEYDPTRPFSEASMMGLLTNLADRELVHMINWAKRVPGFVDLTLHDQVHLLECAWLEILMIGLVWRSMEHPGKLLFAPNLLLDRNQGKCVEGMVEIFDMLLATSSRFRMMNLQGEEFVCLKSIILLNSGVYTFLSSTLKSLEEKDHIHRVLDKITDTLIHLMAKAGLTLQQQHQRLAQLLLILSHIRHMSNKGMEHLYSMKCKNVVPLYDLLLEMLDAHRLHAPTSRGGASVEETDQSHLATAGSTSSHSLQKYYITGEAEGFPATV

## C[C@H]1CCCC(=O)CCC/C=C/c2cc(O)cc(O)c2C(=O)O1 [zearalenone]
S/C value, control = 3.51
  Response of ERE fiber to hER and 10^−6 M compound (control = 3.51): 5.01
In words, 10^−6 M compound
  effect on binding of hER to the ERE fiber: increase binding to the ERE more than do the weak biological estrogens
